Experimental data published in PMC7447632, “Highly functionalized β-lactams and 2-ketopiperazines as TRPM8 antagonists with antiallodynic activity” (Scientific Reports, 2020).
Structures can show the parent of a compound that is named as a salt. Where two headings read alike, the source gives them in different places.

Tests used:
Format in all cases: cell-based
[1] = molecular target: T1, hTRPV1 channels (Homo sapiens, UniProt Q8NER1); assay: Ca2+ microfluorometry in HEK cells expressing hTRPV1 (capsaicin); settings: 1 µM capsaicin; for TRPV1 Blockade (%) 5 µM: 5 µM compound; for TRPV1 Blockade (%) 50 µM: 50 µM compound
T1 construct: expressed in transfected cells; host or cells: HEK (stably transfected)
T1 sequence (Q8NER1 whole entry): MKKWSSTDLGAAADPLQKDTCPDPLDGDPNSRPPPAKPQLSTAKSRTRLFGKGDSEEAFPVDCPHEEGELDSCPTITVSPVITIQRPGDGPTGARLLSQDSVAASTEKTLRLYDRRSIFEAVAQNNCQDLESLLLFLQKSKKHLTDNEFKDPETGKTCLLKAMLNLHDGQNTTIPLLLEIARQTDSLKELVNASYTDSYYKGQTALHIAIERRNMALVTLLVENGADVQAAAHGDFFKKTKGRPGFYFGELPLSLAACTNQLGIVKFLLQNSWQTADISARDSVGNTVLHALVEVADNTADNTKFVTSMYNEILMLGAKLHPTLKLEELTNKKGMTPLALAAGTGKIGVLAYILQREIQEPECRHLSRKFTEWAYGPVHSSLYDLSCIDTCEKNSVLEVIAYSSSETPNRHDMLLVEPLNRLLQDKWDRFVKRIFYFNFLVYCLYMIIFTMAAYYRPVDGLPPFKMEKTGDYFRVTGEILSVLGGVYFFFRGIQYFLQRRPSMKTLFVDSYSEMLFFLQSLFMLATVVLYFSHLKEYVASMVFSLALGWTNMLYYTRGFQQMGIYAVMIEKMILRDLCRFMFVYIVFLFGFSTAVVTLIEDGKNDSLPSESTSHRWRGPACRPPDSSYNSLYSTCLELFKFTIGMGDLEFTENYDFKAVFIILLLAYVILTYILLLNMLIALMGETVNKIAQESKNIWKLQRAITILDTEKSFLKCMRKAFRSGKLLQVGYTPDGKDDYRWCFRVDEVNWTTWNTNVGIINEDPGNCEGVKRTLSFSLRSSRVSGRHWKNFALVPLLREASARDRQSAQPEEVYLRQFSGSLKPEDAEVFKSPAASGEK
Description: β-Lactam and 2-ketopiperazine derivatives were also assayed for their activity in cell expressing hTRPV1 channels. No significant antagonist activity was measured for any derivatives within both chemotypes (Supplementary Tables S1, S2, and Fig. S3), indicating their selectivity for TRPM8 channels.
(§1) Human embryonic kidney cell line (HEK) stably transfected with rTRPM8 or h-TRPV1 were used as previously described. Briefly, cells were seeded in 96-well plates at a cell density of 30,000 cells 2 days before treatment. Buffer used was HBBS (in mM): 138 NaCl, 5.33 KCl, 1.26 CaCl2, 0.5 MgCl-6H2O, 0.4 MgSO4-7H2O, 4 NaHCO3 0.44 KH2PO4, 0.3 Na2HPO4, pH 7.4. The day of treatment the medium was replaced with 100 µL of the dye loading solution Fluo-4 NW supplemented with probenecid 2.5 mM. After incubation, plates were transferred to a fluorescence plate reader (Polastar BMG). In the experimental protocol, the baseline fluorescence was recorded ([…]) for 3 cycles. After, vehicle, compound at different concentrations and the corresponding antagonist, 10 µM AMTB for TRPM8 or 10 µM Ruthenium Red for TRPV1 were added to the well. Fluorescence intensity was recorded during 7 cycles more. Finally, the agonist 100 µM menthol for TRPM8 or 1 µM capsaicin for TRPV1 was added and fluorescence intensity was recorded during 10 cycles more.
Table S1. Activity at hTRPV1 of β–lactams derived from phenylalaninol conjugates
Compd. Isomer Isomer TRPV1 Blockade (%)
Table S2. Activity at hTRPV1 of 2-ketopiperazines derived from phenylalaninol

[2] = molecular target: T2, rat TRPM8 channel (Rattus norvegicus, UniProt Q8R455); assay: Ca2+ microfluorometry, menthol-induced Ca2+ influx in HEK293 cells expressing rat TRPM8; settings: 100 µM menthol, HEK-rTRPM8; for % Blockade 5 µM: 5 µM compound; for % Blockade 50 µM: 50 µM compound; for IC50: Ca2+ microfluorometry
T2 construct: expressed in transfected cells; host or cells: HEK293 (stably transfected)
T2 sequence (Q8R455 whole entry): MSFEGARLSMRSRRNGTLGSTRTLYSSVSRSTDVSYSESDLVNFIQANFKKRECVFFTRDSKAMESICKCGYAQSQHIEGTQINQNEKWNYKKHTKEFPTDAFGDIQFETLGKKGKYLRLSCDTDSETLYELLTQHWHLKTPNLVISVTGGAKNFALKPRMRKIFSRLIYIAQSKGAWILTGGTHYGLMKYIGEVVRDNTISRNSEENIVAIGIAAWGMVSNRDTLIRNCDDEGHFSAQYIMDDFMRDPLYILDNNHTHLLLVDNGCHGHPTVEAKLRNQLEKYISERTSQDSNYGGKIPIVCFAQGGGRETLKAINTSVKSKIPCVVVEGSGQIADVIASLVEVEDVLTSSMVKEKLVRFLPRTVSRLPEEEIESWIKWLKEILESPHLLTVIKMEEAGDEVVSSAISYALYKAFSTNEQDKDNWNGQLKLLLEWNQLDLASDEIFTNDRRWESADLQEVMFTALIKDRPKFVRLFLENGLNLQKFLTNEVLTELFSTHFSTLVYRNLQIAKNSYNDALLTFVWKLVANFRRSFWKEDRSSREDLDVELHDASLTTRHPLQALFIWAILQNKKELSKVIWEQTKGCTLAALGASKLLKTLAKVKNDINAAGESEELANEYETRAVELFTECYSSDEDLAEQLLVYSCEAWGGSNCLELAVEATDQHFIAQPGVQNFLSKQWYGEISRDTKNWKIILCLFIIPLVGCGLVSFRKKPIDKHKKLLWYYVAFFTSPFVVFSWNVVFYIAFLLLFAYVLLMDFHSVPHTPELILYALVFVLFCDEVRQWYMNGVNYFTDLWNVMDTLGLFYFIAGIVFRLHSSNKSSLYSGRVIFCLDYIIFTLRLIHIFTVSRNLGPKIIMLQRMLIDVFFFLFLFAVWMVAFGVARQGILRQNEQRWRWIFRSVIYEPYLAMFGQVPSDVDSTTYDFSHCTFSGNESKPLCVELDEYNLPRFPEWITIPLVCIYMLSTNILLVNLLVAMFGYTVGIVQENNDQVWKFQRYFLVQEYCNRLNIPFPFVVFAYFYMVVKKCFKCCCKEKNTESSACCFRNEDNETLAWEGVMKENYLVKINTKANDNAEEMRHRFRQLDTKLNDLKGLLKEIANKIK
Description: The ability to inhibit menthol-induced Ca^2+ intracellular influx into the cytosol on HEK293 cells heterologously expressing the rat TRPM8 channel was measured and compared to that of AMTB, a well-known TRPM8 antagonist. Representative recordings of fluorescence obtained in microfluorometry experiments for selected compounds are in Supplementary Fig. S3.
as §1
The degree of inhibition of TRPM8 channel gating was calculated by comparison to calcium increase signal elicited by test substances and menthol at 100 µM. Decrease of menthol signal was expressed as percentage of inhibition (%). All data are expressed as mean ± standard deviation (SD). Each condition was assessed by triplicate (n = 3) in 3 independent experiments (N = 3). Z-factor was calculated in each assay using the following equation: […]. In all the experiments Z-factor was ≥ 0.5. To calculate IC50, normalized responses (%) versus log [µM] were adjusted to a non-linear fit with variable slope, a four-parameter dose–response curve following curve Y = 100/(1 + 10^((Log IC50-X)*HillSlope)) where […].

[3] = system: HT29 (colorectal adenocarcinoma); assay: SRB cytotoxicity assay, HT29; settings: for TGI HT29: total growth inhibition; for GI50 / CC50: Homo sapiens; for CC50: read-out: LC50 HT29
Description: (§2) Human tumor cell lines used in this study were purchased from the ATCC. A-549 (CCL-185), lung carcinoma; HT-29 (HTB-38), colorectal adenocarcinoma; MDA-MB-231 (HTB-26), breast adenocarcinoma; PSN1, pancreas adenocarcinoma.
(§3) All cell lines were maintained in DMEM (Dulbecco’s Modified Eagle's Medium) culture medium supplemented with 10% FBS (Fetal Bovine Serum), 100 Units/mL penicillin/streptomycin at 37 °C, 5% CO2 and 95% humidity.
(§4) Triplicate cultures were incubated for 72 h in the presence or absence of test compounds in dose–response curves (10 concentrations, typically ranging from 10 to 0.0026 µg/mL). A colorimetric assay using sulforhodamine B (SRB) was adapted for quantitative measurement of cell growth and cytotoxicity. A more detailed information on this assay is provides in the supplementary information. GI50 is the compound concentration that produces 50% inhibition on cell growth as compared to control cells.
(§5) In vitro bioassays for the detection of antitumor activity
(§6) The aim of this assay is to evaluate the in vitro cytostatic (ability to delay or arrest tumor cell growth) or cytotoxic (ability to kill tumor cells) activity of the samples […]
(§7) Name Nº ATCC Species Tissue Characteristics
(§8) A549 CCL-185 human lung lung carcinoma (NSCLC)
(§9) HT29 HTB-38 human colon colorectal adenocarcinoma
(§10) MDA-MB-231 HTB-26 human breast breast adenocarcinoma
(§11) PSN1 CRM-CRL-3211 human pancreas pancreas adenocarcinoma […]
(§12) A colorimetric assay, using Sulforhodamine B (SRB) reaction has been adapted to provide a quantitative measurement of cell growth and viability (following the technique described by Skehan et al. J. Natl. Cancer Inst. 1990, 82, 1107-1112 […]
(§13) This form of assay employs 96-well cell culture microplates following the standards of the American National Standards Institute and the Society for Laboratory […]
(§14) used in this study were obtained from the American Type Culture Collection (ATCC) and derive from different types of human cancer.
(§15) A549, HT29, MDA-MB-231 and PSN1 cells were maintained in Dulbecco’s
(§16) Modified Eagle Medium (DMEM) supplemented with 10% Fetal Bovine Serum (FBS), 2mM L-glutamine, 100 U/mL penicillin, and 100 U/mL streptomycin at 37 °C, 5% CO2 and 98% humidity. For the experiments, cells were harvested from subconfluent cultures using trypsinization and resuspended in fresh medium before counting and […]
(§17) A549, HT29, MDA-MB-231 and PSN1 cells were seeded in 96 well microtiter plates, at 5000 cells per well in aliquots of 150 µL, and allowed to attach to the plate surface for 18 hours (overnight) in drug free medium. After that, one control (untreated) plate of each cell line was fixed (as described below) and used for time zero reference value. Culture plates were then treated with test compounds (50 µL aliquots of 4X stock […]
(§18) solutions in complete culture medium plus 4% DMSO) using ten 2/5 serial dilutions (concentrations ranging from 10 to 0.003 µg/mL) and triplicate cultures (1% final concentration in DMSO). After 72 hours treatment, the antitumor effect was measured by using the SRB methodology: Briefly, cells were washed twice with PBS, fixed for 15 min in 1% glutaraldehyde solution at room temperature, rinsed twice in PBS, and stained in 0.4% SRB solution for 30 min at room temperature. Cells were then rinsed several times with 1% acetic acid solution and air-dried at room temperature. SRB was then extracted in 10 mM trizma base solution and the absorbance measured in an automated spectrophotometric plate reader at 490 nm.
(§19) Effects on cell growth and survival were estimated by applying the NCI algorithm (Boyd MR and Paull KD. Drug Dev. Res. 1995, 34, 91-109, DOI:10.1002/ddr.430340203). The values obtained in triplicate cultures were fitted by nonlinear regression to a four-parameters logistic curve by nonlinear regression analysis. . Using the absorbance measurements [time zero, (Tz), control growth, (C), and test growth in the presence of drug at the ten concentration levels (Ti)], the […]

[4] = system: A549 (lung carcinoma, NSCLC); assay: SRB cytotoxicity assay, A549; settings: for TGI A549: total growth inhibition; for GI50 / CC50: Homo sapiens; for CC50: read-out: LC50 A549
Description: as §2, §3, §4, §5, §6, §7, §8, §9, §10, §11, §12, §13, §14, §15, §16, §17, §18, §19

[5] = system: MDA-MB-231 (breast adenocarcinoma); assay: SRB cytotoxicity assay, MDA-MB-231; settings: for TGI MDA-MB-231: total growth inhibition; for GI50 / CC50: Homo sapiens; for CC50: read-out: LC50 MDA-MB-231
Description: as §2, §3, §4, §5, §6, §7, §8, §9, §10, §11, §12, §13, §14, §15, §16, §17, §18, §19

[6] = system: PSN1 (pancreas adenocarcinoma); assay: SRB cytotoxicity assay, PSN1; settings: for TGI PSN1: total growth inhibition; for GI50 / CC50: Homo sapiens; for CC50: read-out: LC50 PSN1
Description: as §2, §3, §4, §5, §6, §7, §8, §9, §10, §11, §12, §13, §14, §15, §16, §17, §18, §19

TRPV1 Blockade (%) 5 µM [1]	TRPV1 Blockade (%) 50 µM [1]	% Blockade 5 µM [2]	% Blockade 50 µM [2]	IC50 [2]	SMILES	further results
7.2±3.8%	8.1±3.4%	48.9 ± 6.2%	102.1 ± 7.7%	–	O=C(OCc1ccccc1)C(Cc1ccccc1)N1C[C@H](Cc2ccccc2)N(C(=O)OCc2ccccc2)CC1=O (stereo partly shown) [Compound 13ab]	TGI HT29 ([3]; 72 h, SRB, unit inferred): > 17800 nM; GI50 ([3]; HT-29, 72 h, SRB): > 17800 nM; CC50 ([3]; HT-29, 72 h, SRB, unit inferred): > 17800 nM; TGI A549 ([4]; 72 h, SRB, unit inferred): > 17800 nM; GI50 ([4]; A549, 72 h, SRB): > 17800 nM; CC50 ([4]; A549, 72 h, SRB, unit inferred): > 17800 nM; TGI MDA-MB-231 ([5]; 72 h, SRB, unit inferred): > 17800 nM; GI50 ([5]; MDA-MB-231, 72 h, SRB): > 17800 nM; CC50 ([5]; MDA-MB-231, 72 h, SRB, unit inferred): > 17800 nM; TGI PSN1 ([6]; 72 h, SRB, unit inferred): > 17800 nM; GI50 ([6]; PSN1, 72 h, SRB): > 17800 nM; CC50 ([6]; PSN1, 72 h, SRB, unit inferred): > 17800 nM
12.2±3.1%	19.3±1.2%	22.3 ± 5.5%	61.0 ± 5.6%	18800 ± 1700 nM	COC(=O)C(Cc1ccccc1)N1C[C@H](Cc2ccccc2)N(C(=O)OCc2ccccc2)CC1=O (stereo partly shown) [Compound 20ab]	–
6.2±3.1%	11.8±1.8%	70.0 ± 6.8%	92.5 ± 4.3%	2000 ± 1500 nM	O=C(OCc1ccccc1)C(Cc1ccccc1)N1C[C@H](Cc2ccccc2)N(C(=O)OCc2ccccc2)CC1=O (stereo partly shown) [Compound 21ab]	–
6.2±1.8%	7.3±3.2%	93.5 ± 3.4%	102.4 ± 1.5%	2400 nM	C[C@H]1C(=O)N(C(Cc2ccccc2)C(=O)OCc2ccccc2)C[C@H](Cc2ccccc2)N1C(=O)OCc1ccccc1 (stereo partly shown) [Compound 26ab]	–
4.1±2.3%	6.3±2.3%	47.4 ± 6.8%	115.1 ± 4.5%	17400 ± 1600 nM	C[C@H]1C(=O)N(C(Cc2ccccc2)C(=O)OCc2ccccc2)C[C@@H](Cc2ccccc2)N1C(=O)OCc1ccccc1 (stereo partly shown) [Compound 32ab]	–
–	–	66.0 ± 3.3%	105.5 ± 3.2%	2500 ± 1300 nM	CC(C(=O)OCc1ccccc1)N1CC(Cc2ccccc2)N(C(=O)OCc2ccccc2)CC1=O (stereo not shown) [Compound 38ab]	–
2.6±0.9%	3.2±2.777%	46.6 ± 11.1%	100.4 ± 3.5%	6200 ± 1100 nM	C[C@@H]1C(=O)N(C[C@@H](Cc2ccccc2)NC(=O)OCc2ccccc2)[C@]1(C)C(=O)OCc1ccccc1 [Compound 39a]	–
–	–	79.1 ± 3.3%	107.9 ± 2.5%	800 ± 1200 nM	CC(C(=O)OCc1ccccc1)N1C[C@@H](Cc2ccccc2)N(C(=O)OCc2ccccc2)[C@H](C)C1=O (stereo partly shown) [Compound 40ab]	–

The remaining lines, values behind:

SMILES	TRPV1 Blockade (%) 5 µM [1]	TRPV1 Blockade (%) 50 µM [1]	% Blockade 5 µM [2]	% Blockade 50 µM [2]	IC50 [2]	further results
O=C(N[C@@H](Cc1ccccc1)CN1C(=O)CC1(Cc1ccccc1)C(=O)OCc1ccccc1)OCc1ccccc1 (stereo partly shown) [Compound 12ab]	9.2±1.4%	15.3±2.8%	92.3 ± 6.2%	100.0 ± 3.1%	1500 ± 1200 nM	–
O=C(N[C@H](Cc1ccccc1)CN1C(=O)CC1(Cc1ccccc1)C(=O)OCc1ccccc1)OCc1ccccc1 (stereo partly shown) [Compound 14ab]	4.1±2.4%	8.7±3.5%	91.0 ± 4.3%	103 ± 2.7%	1200 ± 1000 nM	–
CC1C(=O)N(C[C@H](Cc2ccccc2)NC(=O)OCc2ccccc2)[C@@]1(Cc1ccccc1)C(=O)OCc1ccccc1 (stereo partly shown) [Compound 25ab]	3.4±1.7%	4.3±1.1%	68.2 ± 5.6%	89.2 ± 9.2%	3900 ± 1900 nM	–
CC1C(=O)N(C[C@@H](Cc2ccccc2)NC(=O)OCc2ccccc2)[C@@]1(Cc1ccccc1)C(=O)OCc1ccccc1 (stereo partly shown) [Compound 31ab]	5.7±2.3%	12.1±1.3%	91.0 ± 4.3%	105.0 ± 5.5%	1600 ± 1300 nM	–
COc1cccc2c1C(=O)c1c(O)c3c(c(O)c1C2=O)C[C@@](O)(C(=O)CO)C[C@@H]3O[C@H]1C[C@H](N)[C@H](O)[C@H](C)O1 [Doxorubicin.HCl, reference compound]	–	–	–	–	–	TGI HT29 ([3]; 72 h, SRB, unit inferred): 640 nM; CC50 ([3]; HT-29, 72 h): > 17200 nM; GI50 ([3]; HT-29, 72 h, SRB): 190 nM; TGI A549 ([4]; 72 h, SRB, unit inferred): 640 nM; CC50 ([4]; A549, 72 h): 2930 nM; GI50 ([4]; A549, 72 h, SRB): 240 nM; TGI MDA-MB-231 ([5]; 72 h, SRB, unit inferred): 410 nM; CC50 ([5]; MDA-MB-231, 72 h): 980 nM; GI50 ([5]; MDA-MB-231, 72 h, SRB): 170 nM; TGI PSN1 ([6]; 72 h, SRB, unit inferred): 480 nM; CC50 ([6]; PSN1, 72 h): 1620 nM; GI50 ([6]; PSN1, 72 h, SRB): 170 nM
